In US6472395B1, “Agent for use in transplantation” (Leif J. I. Lundblad, priority 1999, dated 2002):
Entries after “also recorded” stand apart in the source; their conditions may differ. One block for each molecule: values may come before it.

Columns and labels:
[1] = Toxicity in vivo (general statement)
rat livers [2] = experiment: Reperfusion (10 min shut-off) of rat liver in heart/lung machine, lactate and bile flow over time; settings: 2 mg B220 in the system, FIG. 4 lower diagram
Experimental: (§1) A series of experiments were carried out with rat livers in a heart/lung machine (FIGS. 4 and 5).
(§2) Lactate was added to a control liver perfusion and the bile flow and the lactate level were measured as a function of time. Bile flow is the clinical parameter for liver function, the higher bile flow the better liver function. The results from controls are shown in the upper diagrams of FIGS. 4 and 5. A normal liver down-regulates the lactate very rapidly to in vivo levels (3-5 mM). The normal bile flow in controls is represented by the dotted line.
In the next experiment a heart/lung machine was shut off for 10 minutes and then it was started again to induce oxidative stress (reperfusion). The amount of lactate, which is a measurement of tissue damage, was determined as a function of time and the bile flow as a function of time was also determined as an indicator of toxic effect. The results are shown in FIG. 4, middle diagram, indicating a high level of lactate (solid curve) and a reduced bile flow (dotted curve) after reperfusion. Both these effects are markers for tissue damage.
In the next experiment the same reperfusion experiment was carried out with B220 present in the system in an amount of 2 mg.

[3] = Long time in vivo experiments on tumour promoter effect of TPA
rat liver [4] = experiment: Donor pretreatment, liver stored 2 h at +30° C. then isolated perfusion, total bile flow; type: in vivo; settings: single dose B220 i.p. to donor 24 h prior to surgery; liver 2 h at +30° C.; FIG. 6
Experimental: In a further experiment rat liver was tested in isolated perfusion where B220 was administered to the donor. The donors were administered a single dose of B220 24 h before the livers were surgically removed and kept at +30° C. for 2 h before set into perfusion (group 3). (There was a “short” storage (2 h) of rat liver at a high temperature (+30° C.) in order to simulate transplantation). The second group was not administered B220 and the first group was controls directly set into perfusion. […] “Transport” and reperfusion gives a massive oxidative stress which leads to tissue damage.
In FIG. 6 the total bile flow was an indicator of tissue damage induced by transplantation. The controls were directly “transplanted” to the perfusion system while the second group of livers was kept for 2 h at 30° C. before “transplantation”. The third group represents the 2 h at 30° C. treatment but with addition of B220 to the donors.

rat livers [5] = experiment: Ischemia/reperfusion in rat liver perfusion system, removal of lactate, comparison with known protective compounds; settings: 5 mg added to the perfusate before ischemia; FIG. 3
Experimental: A third experiment was carried out, wherein rat livers were taken out and were subjected to perfusion in a heart/lung machine. The perfusion solution is blood with an implanted liver. When the system has reached equilibrium the perfusion flow is shut off and 10 to 20 minutes later the perfusion flow is turned on again, which is called reperfusion (ischemia). A known toxic effect of reperfusion (ischemia/infarction)(tissue damage due to oxidative stress) is the reduced capacity to remove lactate from the perfusate.

rat livers [6] = experiment: TPA toxicity in rat liver perfusion, lactate and bile flow
Experimental: as §1, §2
In the next experiment (FIG. 5) a very toxic compound, triphorbolester (TPA) was added to the perfusion fluid. TPA is an inducer of inflammation and a very potent tumour promoter.
Then the same experiment was repeated under the same conditions except that 2 mg B220 also was added to the perfusion. From said results it can be seen that when B220 is present in the system the toxic effects of TPA were prevented and the values of lactate and bile flow were restored (and even better as compared to the controls in FIG. 5, upper diagram). […] The mode of action resides in a blocking of hyperplasia/inflammation.

rat liver [7] = experiment: Donor pretreatment, liver stored 24 h at +4° C. then isolated perfusion, bile flow and lactate; type: in vivo; settings: pretreatment of B220 to the donor
Experimental: The same experiment was repeated but instead the temperature applied during transport of human livers(+4° C.) was used. The livers were stored for 24 h before installation in the perfusion system. This should be compared to 12 h which is the maximum for human liver transplantation. […] The experiment was identical to what is shown in FIG. 6 except for time and temperature used.

rats = experiment: In vivo test of rats with 2,7-dNF, livers analysed for 8-OH-dG; parameters: species or system rat; settings: oral in corn oil, B220 at −48 h, −24 h and +6 h relative to 2,7-dNF dose; FIG. 2
Experimental: In another experiment rats were tested in vivo and the livers analyzed for 8-OH-dG. In this experiment there were three test groups. One control group, one group to which 2,7-dinitrofluorene (2,7-dNF), which is a well-known carcinogen found in diesel exhaust and inducer of 8-OH-dG, was orally administered and one group to which both 2,7-dNF and a compound to be used as an agent according to the present invention (B220) were administered. B220 was administered at three time points in relation to the 2,7-dNF dose, viz. −48 h, −24 h and +6 h. All doses were administered orally with the substance in corn oil. Control only received carrier. Oxidation of DNA (oxidation of guanine, 8-OH-dG) was measured in the liver. 8-OH-dG is a promutagenic event correlated to several different types of diseases, for instance cancer, diabetes and infectious diseases.
The results of the experiment can be seen from the enclosed FIG. 2.

[8] = 2 mg B220 added together with TPA, FIG. 5 lower diagram
[9] = TPA alone added to the perfusion fluid, FIG. 5 middle diagram

Experimental for liver from rat: In order to investigate the agents to be used in transplantation according to the present invention a liver from rat was tested in a perfusion solution in a heart/lung machine. In order to measure organ damage the amount of 8-OH-dG in the liver was analysed. As an inducer of 8-OH-dG dimethylsulphoxide (DMSO) was added to a perfusion solution.

SMILES: Cc1cc2nc3c4ccccc4n(CCN(C)C)c3nc2cc1C [B220]
- toxicity [1]: practically non-toxic
- bile flow as a function of time after reperfusion (rat livers [2]): rapidly accommodate to normal values; also recorded: better than in the controls
- lactate amount as a function of time after reperfusion (rat livers [2]): rapidly accommodate to normal values; also recorded: better than in the controls
- tumour promoter effect of TPA [3]: can stop the very potent tumour promoter effect of TPA
- total bile flow during the perfusion (rat liver [4]): the toxic effects are eliminated; also recorded: completely restored the bile flow value to that of the control samples
- reduction of lactate in perfusate after ischemia (protection) (rat livers [5]): significant reduction of lactate; also recorded: statistically significant protection
- bile flow with TPA in perfusion (rat livers [6]; [8]): restored
- lactate with TPA in perfusion (rat livers [6]; [8]): restored
- bile flow (rat liver [7]; FIG. 7): the bile flow was restored
- lactate levels (rat liver [7]; FIG. 8): same protective effect on lactate levels
- 8-OH-dG in the liver (oxidation of DNA) (rats): protects against 2,7-dNF-induced formation of 8-OH-dG; also recorded: reduces 8-OH-dG to below the control values

SMILES: CC(=O)Oc1ccccc1C(=O)O [ASA, acetyl salicylic acid]
- reduction of lactate in perfusate after ischemia (protection) (rat livers [5]): did not give any protective effects

- 8-OH-dG in the liver (liver from rat): significant increase of 8-OH-dG
SMILES: C[S+](C)[O-] [DMSO, dimethylsulphoxide, reference compound]

SMILES: CCCCCCCCCCCCCC(=O)O[C@@H]1[C@@H](C)[C@@]2(O)[C@@H](C=C(CO)C[C@]3(O)C(=O)C(C)=C[C@@H]23)[C@@H]2C(C)(C)[C@]12OC(C)=O [TPA, triphorbolester, reference compound]
- capacity to produce bile (rat livers [6]; [9]): very restricted capacity to produce bile
- capacity to reduce lactate (rat livers [6]; [9]): very limited capacity to reduce lactate
